This is an account of results in paper PMC10108886 (Cancer Research Communications, 2023).

Holding throughout (assay): cells
In one assay the test system is DU145. The note with it: Homo sapiens, DU-145, read-out: EC50 of RBN2397 (nM), Ligand* (Conc.)=BBQ (10 nM); AR Status=(-); growth inhibition with PARP7-inducing ligand; partial maximal effect. The source says: (§1) VCaP cells encode wild-type (WT) AR and the V7 variant, and are used to model castrate resistance owing to amplification of AR. CWR22Rv1 is an informative model for therapy resistance mediated by AR splice variants that lack the ligand-binding domain. PC3-AR is a PC3 derivative engineered to express WT AR, which drives a gene expression profile that overlaps other prostate lines ([18]). PC3 cells are AR negative, resistant to therapies based on androgen deprivation, highly motile, and used to study prostate cancer metastasis. […] It is well established that androgen treatment is growth repressive in some prostate cancer lines. […] A G1 effect of androgen is, however, apparent in VCaP and PC3-AR cells (Supplementary Fig. S1A). […] FICZ is a naturally occurring tryptophan photoproduct, while 10-Chloro-7H-benzimidazo[2,1-a]benz[de]isoquinolin-7-one (10-CI-BBQ; here termed BBQ) is a synthetic molecule. FICZ and BBQ induce AHR target genes through a chaperone-mediated mechanism ([26]). […] In A, D–H, each condition reflects eight biological replicates, error bars show the SD, and ****, P < 0.0001; ***, P < 0.001; **, <0.01. […] The experiments were performed in triplicate, error bars show the SD, and ***, P < 0.001; **, <0.01, *, <0.05; ns, not significant. C, Phase contrast microscopy showing the morphology of cells treated with AHR agonist and RBN2397. […] A similar image for CWR22Rv1 cells with vehicle alone (−) is used in both Fig. 2C and 4C. […] F, RBN2397 dose–response curve of VCaP cells treated with BBQ.

The next assay deals with CWR22Rv1(shPARP7). The note with it: AR Status=H874Y and V7, growth inhibition with PARP7-inducing ligand, partial maximal effect.
Text: as §1

A further assay has as its system PC3AR(shParp7). The following applies: PC3/AR, AR Status=WT, growth inhibition with PARP7-inducing ligand, partial maximal effect.
Text: as §1

The next assay relates to CWR22Rv1(shGFP). The note with it: AR Status=H874Y and V7, growth inhibition with PARP7-inducing ligand, partial maximal effect.
Text: as §1

The subject of a further assay is PC3AR. The following applies: PC3/AR, read-out: EC50 of RBN2397 (nM), Ligand* (Conc.)=R1881 (0.2 nM); AR Status=WT; growth inhibition with PARP7-inducing ligand; partial maximal effect.
Text: as §1

Another assay concerns PC3. The note with it: Homo sapiens, AR Status=(-), growth inhibition with PARP7-inducing ligand, partial maximal effect.
Text: as §1

In the next assay the test system is VCaP. The following applies: Homo sapiens, VCaP, AR Status=WT and V7, growth inhibition with PARP7-inducing ligand, partial maximal effect.
Text: as §1

The subject of another assay is PC3AR(shGFP). The following applies: PC3/AR, AR Status=WT, growth inhibition with PARP7-inducing ligand, partial maximal effect.
Text: as §1

The mark [1] stands for this setting: CWR22Rv1, read-out: EC50 of RBN2397 (nM), Ligand* (Conc.)=BBQ (10 nM).
The mark [2] stands for this setting: CWR22Rv1, read-out: EC50 of RBN2397 (nM), Ligand* (Conc.)=R1881 (2 nM).
The mark [3] stands for this setting: read-out: EC50 of RBN2397 (nM), Ligand* (Conc.)=BBQ (10 nM).
The mark [4] stands for this setting: read-out: EC50 of RBN2397 (nM), Ligand* (Conc.)=R1881 (0.2 nM).

Structures are written as SMILES. Like-named read-outs stand apart in the source and are kept apart here.

As usually defined, the EC50 is the midpoint of the concentration-response curve. For `C[C@@H](COCCC(=O)N1CCN(c2ncc(C(F)(F)F)cn2)CC1)Nc1cn[nH]c(=O)c1C(F)(F)F` [RBN2397], the concentration for a half-maximal effect (EC50) in the assay with DU145 amounted to 5.2 nM; with CWR22Rv1(shPARP7) (setting [1]) it was 1.7 nM; with CWR22Rv1(shPARP7) (setting [2]), 39.6 nM; with PC3AR(shParp7) (setting [3]), 5.6 nM; in the assay with PC3AR(shParp7) (setting [4]) it was 5.7 nM; in the assay on CWR22Rv1(shGFP) (setting [1]) it was 0.6 nM. In addition, the EC50 with CWR22Rv1(shGFP) (setting [2]) is 4.8 nM; in the assay on PC3AR, 2.4 nM; with PC3 (PC-3, read-out: EC50 of RBN2397 (nM), Ligand* (Conc.)=BBQ (10 nM)), 10 nM; in the assay on PC3 (PC-3, read-out: EC50 of RBN2397 (nM), Ligand* (Conc.)=R1881 (0.2 nM)), 9.4 nM; in the assay on VCaP (read-out: EC50 of RBN2397 (nM), Ligand* (Conc.)=BBQ (100 nM)), 34.2 nM; with VCaP (read-out: EC50 of RBN2397 (nM), Ligand* (Conc.)=R1881 (2 nM)), 3.4 nM. In addition, the concentration for a half-maximal effect (EC50) in the assay with PC3AR(shGFP) (setting [3]) was 8.4 nM; in the assay on PC3AR(shGFP) (setting [4]), 3.4 nM.
